Experimental data taken from patent US9062124B2, “GIP-based mixed agonists for treatment of metabolic disorders and obesity” (priority 2008, dated 2015).
Where a SMILES comes first, the peptide text is derived from it. [ ]: non-standard residue; d: D form. The star is where a group is joined. Myristoyl = CCCCCCCCCCCCCC(=O)*; Aib = CC(C)(N)C(=O)O

What was measured:
Assay type in all cases: cell-based
glucagon receptor = biological target: T1, glucagon receptor (Homo sapiens, UniProt P47871); test: cAMP synthesis functional assay (firefly luciferase reporter in HEK293 cells), glucagon receptor
T1 construct: expressed in transfected cells; host or cells: HEK293
T1 sequence (P47871 26-477): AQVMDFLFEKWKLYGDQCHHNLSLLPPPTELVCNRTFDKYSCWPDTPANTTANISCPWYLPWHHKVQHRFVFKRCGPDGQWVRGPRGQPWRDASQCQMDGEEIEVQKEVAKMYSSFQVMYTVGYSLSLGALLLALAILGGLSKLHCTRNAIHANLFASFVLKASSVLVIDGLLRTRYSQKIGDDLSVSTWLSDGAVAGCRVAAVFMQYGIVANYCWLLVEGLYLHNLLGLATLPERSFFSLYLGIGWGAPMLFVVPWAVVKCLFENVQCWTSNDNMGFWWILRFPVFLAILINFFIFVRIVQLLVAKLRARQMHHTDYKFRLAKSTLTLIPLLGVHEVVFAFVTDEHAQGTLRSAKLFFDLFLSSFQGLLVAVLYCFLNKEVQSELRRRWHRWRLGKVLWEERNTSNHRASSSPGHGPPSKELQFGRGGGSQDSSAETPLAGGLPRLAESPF

GLP-1 receptor = biological target: T2, GLP-1 receptor (Homo sapiens, UniProt P43220); test: cAMP synthesis functional assay (firefly luciferase reporter in HEK293 cells), GLP-1 receptor
T2 construct: expressed in transfected cells; host or cells: HEK293
T2 sequence (P43220 24-463, species assumed): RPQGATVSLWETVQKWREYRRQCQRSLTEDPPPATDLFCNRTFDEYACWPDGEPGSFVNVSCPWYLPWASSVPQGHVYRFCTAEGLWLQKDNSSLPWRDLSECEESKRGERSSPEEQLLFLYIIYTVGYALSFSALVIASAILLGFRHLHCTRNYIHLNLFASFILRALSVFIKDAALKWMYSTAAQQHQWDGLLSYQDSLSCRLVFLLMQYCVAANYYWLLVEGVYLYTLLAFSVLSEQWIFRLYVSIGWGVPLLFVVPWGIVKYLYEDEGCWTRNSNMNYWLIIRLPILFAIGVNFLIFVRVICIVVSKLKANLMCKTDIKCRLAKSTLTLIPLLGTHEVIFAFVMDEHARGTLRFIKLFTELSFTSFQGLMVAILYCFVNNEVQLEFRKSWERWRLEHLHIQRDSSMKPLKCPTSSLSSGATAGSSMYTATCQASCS

GIP receptor = biological target: T3, GIP receptor (Homo sapiens, UniProt P48546); test: cAMP synthesis functional assay (firefly luciferase reporter in HEK293 cells), GIP receptor; details: for EC50: GIP Receptor EC50, cAMP luciferase reporter assay as in Example 16
T3 construct: expressed in transfected cells; host or cells: HEK293
T3 sequence (P48546 22-466): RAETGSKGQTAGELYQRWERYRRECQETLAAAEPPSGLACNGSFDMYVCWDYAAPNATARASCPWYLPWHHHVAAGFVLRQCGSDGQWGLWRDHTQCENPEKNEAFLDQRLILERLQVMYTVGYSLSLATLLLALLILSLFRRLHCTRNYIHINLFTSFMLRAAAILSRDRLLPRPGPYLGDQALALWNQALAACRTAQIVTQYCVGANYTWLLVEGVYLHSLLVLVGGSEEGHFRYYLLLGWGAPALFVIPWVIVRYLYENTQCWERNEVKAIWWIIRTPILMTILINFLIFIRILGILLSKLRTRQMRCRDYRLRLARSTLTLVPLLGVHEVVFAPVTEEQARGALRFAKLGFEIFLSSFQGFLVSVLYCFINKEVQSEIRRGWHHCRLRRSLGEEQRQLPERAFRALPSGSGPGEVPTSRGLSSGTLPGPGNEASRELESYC

[1] = relative to the standard (Std.) EC50 of the same run
[2] = GLP-1 Receptor EC50, cAMP luciferase reporter assay as in Example 16

SMILES | Glucagon Receptor relative activity (glucagon receptor; Table 2) | EC50 (GLP-1 receptor; GLP-1 Receptor EC50, nM, Table 2) | GLP-1 Receptor relative activity (GLP-1 receptor; Table 2) | GIP Receptor relative activity (GIP receptor; Table 2) | Glucagon Receptor relative activity (glucagon receptor; [1]) | EC50 (GLP-1 receptor; [2]) | GLP-1 Receptor relative activity (GLP-1 receptor; [1]) | EC50 (GIP receptor) | GIP Receptor relative activity (GIP receptor; [1]) | EC50 (glucagon receptor; Glucagon Receptor EC50, cAMP luciferase reporter assay as in Example 16)
CC[C@H](C)[C@H](NC(=O)[C@H](CO)NC(=O)[C@H](Cc1ccc(O)cc1)NC(=O)[C@H](CC(=O)O)NC(=O)[C@H](CO)NC(=O)[C@@H](NC(=O)[C@H](Cc1ccccc1)NC(=O)[C@@H](NC(=O)CNC(=O)[C@H](CCC(N)=O)NC(=O)C(C)(C)NC(=O)[C@@H](N)Cc1ccc(O)cc1)[C@@H](C)O)[C@@H](C)O)C(=O)N[C@@H](Cc1ccc(O)cc1)C(=O)N[C@@H](CC(C)C)C(=O)N[C@@H](CC(=O)O)C(=O)NC(C)(C)C(=O)N[C@@H](CCC(N)=O)C(=O)N[C@@H](C)C(=O)N[C@@H](C)C(=O)N[C@@H](CCCCN)C(=O)N[C@@H](CCC(=O)O)C(=O)N[C@@H](Cc1ccccc1)C(=O)N[C@H](C(=O)N[C@@H](CC(N)=O)C(=O)N[C@@H](Cc1c[nH]c2ccccc12)C(=O)N[C@@H](CC(C)C)C(=O)N[C@@H](CC(C)C)C(=O)N[C@@H](C)C(=O)NCC(=O)NCC(=O)N1CCC[C@H]1C(=O)N[C@@H](CO)C(=O)N[C@@H](CO)C(=O)NCC(=O)N[C@@H](C)C(=O)N1CCC[C@H]1C(=O)N1CCC[C@H]1C(=O)N1CCC[C@H]1C(=O)N[C@@H](CO)C(=O)N[C@@H](CS)C(N)=O)C(C)C [mt-241] (H-Y[Aib]QGTFTSDYSIYLD[Aib]QAAKEFVNWLLAGGPSSGAPPPSC-NH2; N-terminus assumed) | 3.73% | 0.023 nM | 130.43% | 4.37% | – | – | – | – | – | –
CC[C@H](C)[C@H](NC(=O)[C@H](CO)NC(=O)[C@H](Cc1ccc(O)cc1)NC(=O)[C@H](CC(=O)O)NC(=O)[C@H](CO)NC(=O)[C@@H](NC(=O)[C@H](Cc1ccccc1)NC(=O)[C@@H](NC(=O)CNC(=O)[C@H](CCC(=O)O)NC(=O)C(C)(C)NC(=O)[C@@H](N)Cc1ccc(O)cc1)[C@@H](C)O)[C@@H](C)O)C(=O)N[C@@H](Cc1ccc(O)cc1)C(=O)N[C@@H](CC(C)C)C(=O)N[C@@H](CC(=O)O)C(=O)N[C@@H](CCCCN)C(=O)N[C@@H](CCC(N)=O)C(=O)N[C@@H](C)C(=O)N[C@@H](C)C(=O)NC(C)(C)C(=O)N[C@@H](CCC(=O)O)C(=O)N[C@@H](Cc1ccccc1)C(=O)N[C@H](C(=O)N[C@@H](CC(N)=O)C(=O)N[C@@H](Cc1c[nH]c2ccccc12)C(=O)N[C@@H](CC(C)C)C(=O)N[C@@H](CC(C)C)C(=O)N[C@@H](C)C(=O)NCC(=O)NCC(=O)N1CCC[C@H]1C(=O)N[C@@H](CO)C(=O)N[C@@H](CO)C(=O)NCC(=O)N[C@@H](C)C(=O)N1CCC[C@H]1C(=O)N1CCC[C@H]1C(=O)N1CCC[C@H]1C(=O)N[C@@H](CO)C(=O)N[C@@H](CS)C(N)=O)C(C)C [mt-256] | – | – | – | – | 0.12% | 0.0124 nM | 95.97% | 0.0034 nM | 282.35% | –
CCCCCCCCCCCCCC(=O)NCCCC[C@H](NC(=O)[C@H](CC(=O)O)NC(=O)[C@H](CO)NC(=O)[C@@H](NC(=O)[C@H](Cc1ccccc1)NC(=O)[C@@H](NC(=O)CNC(=O)[C@H](CCC(=O)O)NC(=O)C(C)(C)NC(=O)[C@@H](N)Cc1ccc(O)cc1)[C@@H](C)O)[C@@H](C)O)C(=O)N[C@@H](CO)C(=O)N[C@H](C(=O)N[C@@H](Cc1ccc(O)cc1)C(=O)N[C@@H](CC(C)C)C(=O)N[C@@H](CC(=O)O)C(=O)N[C@@H](CCCCN)C(=O)N[C@@H](CCC(N)=O)C(=O)N[C@@H](C)C(=O)N[C@@H](C)C(=O)NC(C)(C)C(=O)N[C@@H](CCC(=O)O)C(=O)N[C@@H](Cc1ccccc1)C(=O)N[C@H](C(=O)N[C@@H](CC(N)=O)C(=O)N[C@@H](Cc1c[nH]c2ccccc12)C(=O)N[C@@H](CC(C)C)C(=O)N[C@@H](CC(C)C)C(=O)N[C@@H](C)C(=O)NCC(=O)NCC(=O)N1CCC[C@H]1C(=O)N[C@@H](CO)C(=O)N[C@@H](CO)C(=O)NCC(=O)N[C@@H](C)C(=O)N1CCC[C@H]1C(=O)N1CCC[C@H]1C(=O)N1CCC[C@H]1C(=O)N[C@@H](CO)C(N)=O)C(C)C)[C@@H](C)CC [mt-269] (H-Y[Aib]EGTFTSDK(Myristoyl)SIYLDKQAA[Aib]EFVNWLLAGGPSSGAPPPS-NH2; N-terminus assumed) | – | – | – | – | 0.11% | 0.0136 nM | 144.85% | 0.0057 nM | 140.35% | 183 nM
